From US11459410B2, “High-purity amphipathic arylsulfonic acid amine salt vinyl monomer and copolymer thereof” (TOSOH FINECHEM CORPORATION, priority 2017, dated 2022) come the findings set out here.

Series [1] can be described thus: Evaluation 2 (Storage Stability): accelerated test of polymerization stability of the solid at 60° C. The note with it: for Comprehensive Evaluation (storage stability): sealed bottle, one week.
Experimental: 2.0 g of the solid of styrenesulfonic acid salt was added to glass screw tube bottle, and the bottle was sealed with a plug. Then, the bottle was placed in a box dryer at 60° C., and an accelerated test of polymerization stability was performed.
Sampling was performed every other day for a total of one week to check properties, odor, pH change, and the progress of polymerization by heat.
TOASS was dissolved in dimethylformamide and subjected to GPC analysis using a 10 mmol/L lithium bromide dimethylformamide solution as eluent.
A short description of series [2]: Evaluation 1 (Solubility): saturation solubility in water, THF, NMP and toluene. The format is physicochemical. The note with it: for Solubility NMP: N-methylpyrrolidone; for Solubility NMP / Solubility THF / Solubility Toluene / Solubility Water: 25° C., saturation solubility; for Solubility THF: tetrahydrofuran. How it is done:
2 g each of water, tetrahydrofuran (THF), N-methylpyrrolidone (NMP), and toluene were added to glass screw tube bottles. Small portions of styrenesulfonic acid salts were added thereto at 25° C., and the solubilities thereof were observed while shaking the bottles by hand. In each case, the point at which the solid started to remain was determined to be saturation solubility, and the solubility was calculated by the following Equation. Solubility (wt %)=A/(S+A)×100
A: Weight of amine added (g)

Where two headings read alike, the source gives them in different places.

Consider `C=Cc1ccc(S(=O)(=O)O)cc1.CCCCCCCCN` [MOASS, parastyrenesulfonic acid n-monooctylamine salt, reference compound], for which the “Monomer (area %), after one week” value in series [1] (GPC, solid, 60° C.) is recorded as 92.20 area %. The “Odor, after one week” value in series [1] (solid, 60° C.) was “No”. In addition, the “Solubility (in words)” value in series [2] was “did not have sufficient solubility”.

For `C=Cc1ccc(S(=O)(=O)O)cc1.CCCCCCCCN(CCCCCCCC)CCCCCCCC` [TOASS, parastyrenesulfonic acid n-trioctylamine, reference compound], the “Monomer (area %), after one week” value in series [1] (GPC, solid, 60° C.) is 0.00 area %. Moreover, in series [1] (solid, 60° C.), the “Odor, after one week” value is recorded as “Yes”. In series [1] (solid, 60° C., first day), the “Properties on the first day of evaluation” value is “yellow translucent plastic form”. Moreover, in series [2], the “Solubility in water (in words)” value is “poor water solubility”.

For the compound “parastyrenesulfonic acid N,N-diisopropylethylamine salt [DIPEASS]”, in series [1] (GPC, solid, 60° C.), the “Monomer (area %), after one week” value was found to be 92.40 area %. In series [1] (solid, 60° C.), the “Odor, after one week” value is “No” and the “Comprehensive Evaluation (storage stability)” value is “∘”. Further, in series [2], the “Solubility NMP” value is recorded as “∘ (Easily soluble (10 wt % or more))”, the “Solubility THF” value is “Δ (Soluble (1 to 10 wt %))” and the “Solubility Toluene” value is “Δ (Soluble (1 to 10 wt %))”. Also, the “Solubility Water” value in series [2] (water) is “∘ (Easily soluble (10 wt % or more))”.

On to “parastyrenesulfonic acid N,N-dimethylcyclohexylamine salt [CHASS]”, for which, in series [1] (GPC, before start of the 60° C. test), the “Monomer (area %), before start of reaction” value came to 100 area %. Moreover, in series [1] (GPC, solid, 60° C.), the “Monomer (area %), after one week” value is reported as 97.24 area %. The “Odor, before start of reaction” value in series [1] (before start of the 60° C. test) was “No”. In series [1] (solid, 60° C.), the “Odor, after one week” value was “No” and the “Comprehensive Evaluation (storage stability)” value was “∘”. In series [2], the “Solubility NMP” value is “∘ (Easily soluble (10 wt % or more))”, the “Solubility THF” value is listed as “∘ (Easily soluble (10 wt % or more))” and the “Solubility Toluene” value was “Δ (Soluble (1 to 10 wt %))”. Moreover, the “Solubility in an organic solvent (in words)” value in series [2] (organic solvent) is listed as “sufficient solubility in an organic solvent”. In series [2] (water), the “Solubility in water (in words)” value is listed as “soluble in water” and the “Solubility Water” value is on record as “∘ (Easily soluble (10 wt % or more))”.

With “parastyrenesulfonic acid dicyclohexylamine salt [DCHASS, reference compound]”, in series [2], the “Solubility NMP” value was “∘ (Easily soluble (10 wt % or more))”, the “Solubility THF” value is given as “x (Insoluble (1 wt % or less))” and the “Solubility Toluene” value was “x (Insoluble (1 wt % or less))”. For the same compound, the “Solubility (in words)” value in series [2] (overall, Evaluation 1) was “did not have sufficient solubility”. Further, the “Solubility Water” value in series [2] (water) is “x (Insoluble (1 wt % or less))”.
